Measured values reported in PMC9530963, “A cathelicidin antimicrobial peptide from Hydrophis cyanocinctus inhibits Zika virus infection by downregulating expression of a viral entry factor” (The Journal of Biological Chemistry, 2022).

How the values were obtained:
TYRO3 = TYRO3 level in Vero cells (Western blot); format: cell-based, Chlorocebus aethiops; conditions: 6, 12, and 24 h post Hc-CATH addition
Procedure: (§1) Figure 3 Hc-CATH downregulates AXL in Vero cell.A, schematic diagram of B and C. B, Vero cells were seeded in 24-well plates (5 × 10^4 cells/well) and cultured in DMEM containing 2% FBS. Hc-CATH (1.25, 2.5, and 5 μM), AC5 (2.5 μM), LL-37 (2.5 μM), or same volume of PBS (peptide solvent) was added to cells. After culture at 37 °C for 6, 12, and 24 h, the levels of ZIKV entry factors, including AXL, TYRO3, and TIM-1, were tested by Western blot, respectively. C, Vero cells were seeded in 8-well cover slip chambers (5 × 10^4 cells/well) and cultured in DMEM containing 2% FBS. Hc-CATH (1.25, 2.5, and 5 μM), AC5 (2.5 μM), LL-37 (2.5 μM), or same volume of PBS (peptide solvent) was added to cells. After culture at 37 °C for 24 h, the level of AXL was tested by immunofluorescence staining. The scale bar represents 50 μm. D, schematic diagram of E. E, Vero cells were seeded in 24-well plates (5 × 10^4 cells/well) and cultured in DMEM containing 2% FBS. Hc-CATH (1.25, 2.5, and 5 μM), AC5 (2.5 μM), LL-37 (2.5 μM), or same volume of PBS (peptide solvent) was added to cells and incubated at 37 °C for 2 h. […] Ratio of AXL to β-actin was analyzed by ImageJ.
(§2) Vero cells were incubated with Hc-CATH (1.25, 2.5, and 5 μM), AC5 (2.5 μM), LL-37 (2.5 μM), or PBS (solvent of peptide). […] The levels of ZIKV entry factors, including AXL, TYRO3, and TIM-1, were detected by WB analysis. […]

TIM-1 = TIM-1 level in Vero cells (Western blot); format: cell-based, Chlorocebus aethiops; conditions: 6, 12, and 24 h post Hc-CATH addition
Procedure: as §1, §2

ZIKV [1] = experiment: Direct inactivation of ZIKV particles (virus pre-incubated with peptide); format: cell-based, ZIKV strain PRVABC59; conditions: ZIKV incubated with 2.5 μM peptide at 37 °C for 2 h, pelleted, added to Vero cells, 48 h; RNA, NS3, E protein, titer
Procedure: Figure 8 Hc-CATH directly inactivates ZIKV particles by disrupting viral membrane.A, schematic diagram of B–G (Hc-CATH-Vero-pre). B–G, direct inactivation of ZIKV by Hc-CATH. ZIKVs (MOI = 1) were incubated with Hc-CATH (2.5 μM), AC5 (2.5 μM), LL-37 (2.5 μM), or PBS (peptide solvent) at 37 °C for 2 h, and then the ZIKV–PBS mixture and ZIKV–peptide mixture were centrifugated at 100,000g for 70 min. The pellets were washed with PBS and centrifugated at 100,000g for 70 min again. The pellets were resuspended in PBS, added to Vero cells, and incubated for 2 h. Cells were washed with PBS and cultured in fresh DMEM containing 2% FBS. After culture at 37 °C for 48 h, the intracellular ZIKV RNA (B), NS3 protein (C and D), E protein level (E, the scale bar represents 50 μm), and extracellular ZIKV titer (F and G) were tested by qPCR, Western blot, immunofluorescence staining, and plaque-forming assay, respectively. H, binding of Hc-CATH to ZIKV. High-affinity binding plates were coated with 0.25 μM of Hc-CATH, BSA, AC5, or LL-37. Then, 1 × 10^6 PFU of ZIKV was added and incubated. […] Absorbance at 450 nm was measured after reactions were stopped using 0.5 M sulfuric acid. […] After the residual RNase was inactivated, the undigested genomic RNA in the intact ZIKV particles was extracted and quantified by testing the genes of PrM, E, and Cap proteins, respectively. ∗∗p < 0.01 and ∗∗∗p < 0.001. […]

ZIKV [2] = experiment: Prophylactic efficacy against ZIKV infection in mice; format: in vivo
Source text: At 4, 8, and 3 days post ZIKV inoculation, C57BL/6J mice, Ifnar1^−/− mice, and pregnant C57BL/6J mice were sacrificed, respectively. Tissues and fetal mice were collected for testing ZIKV RNA by qPCR. ns, not significant, ∗p < 0.05, ∗∗p < 0.01, and ∗∗∗p < 0.001. Hc-CATH, a cathelicidin antimicrobial peptide identified from the sea snake Hydrophis cyanocinctus; PFU, plaque-forming unit; qPCR, quantitative PCR; ZIKV, Zika virus.
C57BL/6J mice, Ifnar1^−/− mice, and pregnant C57BL/6J mice were sacrificed at 4, 8, and 3 days post ZIKV inoculation, respectively. Tissues and fetal mice were collected for testing ZIKV RNA level by qPCR.

bacteria = test system: bacteria; design: method as in PMID 26013823; conditions: cited from earlier work

Sequence: KFFKRLLKSVRRAVKKFRKKPRLIGLSTLL [Hc-CATH, cathelicidin antimicrobial peptide identified from the sea snake Hydrophis cyanocinctus]
- level of TYRO3 in Vero cells (TYRO3): did not obviously influence
- level of TIM-1 in Vero cells (TIM-1): did not obviously influence
- direct inactivation of ZIKV particles (ZIKV [1]): directly inactivated viral particles
- anti-ZIKV efficacy in vivo compared with positive peptides (ZIKV [2]; C57BL/6J mice, prophylactic and therapeutic (Figs. 11E and 12E)): comparable with or even better than that of AC5 and LL-37
- ZIKV replication in C57BL/6J mice, prophylactic (ZIKV [2]; i.v. peptide 2 h before i.v. ZIKV 10^6 PFU/mouse, 4 days, tissue ZIKV RNA, qPCR): significantly decreased ZIKV replication
- ZIKV replication in Ifnar1−/− mice, prophylactic (ZIKV [2]; i.v. peptide 2 h before i.v. ZIKV 10^6 PFU/mouse, 8 days, tissue ZIKV RNA, qPCR): significantly decreased ZIKV replication
- ZIKV replication in fetal placenta and fetal mice, prophylactic (ZIKV [2]; pregnant C57BL/6J mice, i.v. peptide 2 h before i.v. ZIKV 10^6 PFU/mouse, 3 days, qPCR): significantly decreased ZIKV replication
- antibacterial spectrum (bacteria): broad antibacterial spectrum
